Results published in patent publication US10294530B2, “Biomarker FOXF2 for gastric cancer” (The Chinese University of Hong Kong, priority 2016, dated 2019).

Tested on: FOXF2 expression
Experiment: Demethylation treatment, FOXF2 expression by semi-quantitative PCR
Assay type: cell-based, human
Experimental: Semi-quantitative PCR was performed in a total volume of 20 μL reaction containing GeneAmp 1×PCR Buffer II (Applied Biosystems), 2.5 mM MgCl2, 200 μM each of dNTP, 200 nM each of primers, 0.4 U of AmpliTaq Gold DNA polymerase (Applied Biosystems) and 30˜50 ng cDNA. The PCR program started with an initial denaturation at 94° C. for 10 min, followed by 32-35 cycles (94° C. for 30 sec, annealing temperature for 30 sec, and 72° C. for 30 sec) of amplification, with a final extension at 72° C. for 10 min. The PCR bands were visualized under ultraviolet light and photographed. The expression of the target gene was normalized by the expression of house-keeping gene β-actin, which served as an internal control.
Cells were seeded at a density of 1×10^5/100-mm dishes and grew for 24 hours. Cells were then treated with 2 μM 5-aza-2′-deoxycytidine (“5-Aza”) (Sigma-Aldrich) for 5 days. The 5-Aza was replenished every day. The gene expression of FOXF2 was evaluated using semi-quantitative PCR.

`Nc1ncn([C@H]2C[C@H](O)[C@@H](CO)O2)c(=O)n1` [5-Aza, 5-aza-2′-deoxycytidine] was tested, and the FOXF2 expression (AGS, 2 μM 5-Aza for 5 days) was “restored”, the FOXF2 expression (MKN28, 2 μM 5-Aza for 5 days) was “restored” and the FOXF2 expression (MKN45, 2 μM 5-Aza for 5 days) was “restored”. The FOXF2 expression (MKN74) was “insufficient”, the FOXF2 expression (NCL-N87, 2 μM 5-Aza for 5 days) was “restored” and the FOXF2 expression (SNU719, 2 μM 5-Aza for 5 days) was “restored”.
